The text below walks through data of patent US20220323406A1, “METHODS AND COMPOSITIONS FOR DIFFERENTIATING STEM CELLS” (Massachusetts Institute of Technology, priority 2019, published 2022).

Each structure is given as a SMILES string.

The subject of one assay is ENR+CD organoids. Kind of assay: Primary screen: ATP (CellTiter-Glo 3D, CTG) cell number/viability, 2.5-D 384-well ENR+CD organoids.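 Note: compounds given at plating and again on day 3 over a 6-day differentiation from ENR+CV stem-cell-enriched precursors, ATP measured on day 6, plate median as control.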 The note with it: primary screen.
The subject of assay [1] is ENR+CD organoids (ISC to Paneth cell differentiation). Kind of assay: Primary screen: basal (non-stimulated) lysozyme secretion LYZ.NS, 2.5-D 384-well ENR+CD organoid differentiation. The assay is classed as cell-based, mouse. The note with it: primary screen; for Z.LYZ.NS: standard z score. From the text:
(§1) High-throughput screening.

The test system is the same in assay [2]. Put plainly: Primary screen: CCh-stimulated lysozyme secretion LYZ.S, 2.5-D 384-well ENR+CD organoid differentiation. The assay is classed as cell-based, mouse. Conditions: primary screen.
Excerpt: as §1

With `COc1ccc2nc([S@@+]([O-])Cc3ncc(C)c(OC)c3C)[nH]c2c1` [Esomeprazole Sodium], the Dose.FC.CTG was determined as 0.288 log2 fold change in the assay on ENR+CD organoids (dose 0.08 uM), 0.199 log2 fold change in the assay on ENR+CD organoids (dose 0.40 uM), 0.386 log2 fold change in the assay with ENR+CD organoids (dose 2.00 uM) and 0.271 log2 fold change with ENR+CD organoids (dose 10.00 uM). The Dose.FC.LYZ.NS is listed as 0.086 log2 fold change in assay [1] (dose 0.08 uM), 0.233 log2 fold change in assay [1] (dose 0.40 uM), 0.034 log2 fold change in assay [1] (dose 2.00 uM) and −0.016 log2 fold change in assay [1] (dose 10.00 uM). The Z.LYZ.NS in assay [1] (dose 0.08 uM) is 0.747; in assay [1] (dose 0.40 uM), 2.030; in assay [1] (dose 2.00 uM), 0.300; in assay [1] (dose 10.00 uM) it was −0.139. Also, the Dose.FC.LYZ.S in assay [2] (dose 0.08 uM) is given as 0.146 log2 fold change; in assay [2] (dose 0.40 uM) it was 0.174 log2 fold change; in assay [2] (dose 2.00 uM), 0.043 log2 fold change; in assay [2] (dose 10.00 uM) it was 0.021 log2 fold change.
With `CCc1cccc2c3c([nH]c12)C(CC)(CC(=O)O)OCC3` (stereo not drawn) [Etodolac], the Dose.FC.CTG in the assay on ENR+CD organoids (dose 0.08 uM) is −0.061 log2 fold change; in the assay on ENR+CD organoids (dose 0.40 uM) it was 0.049 log2 fold change; in the assay on ENR+CD organoids (dose 2.00 uM), 0.008 log2 fold change; in the assay on ENR+CD organoids (dose 10.00 uM), 0.023 log2 fold change. For the same molecule, the Dose.FC.LYZ.NS in assay [1] (dose 0.08 uM) is 0.046 log2 fold change; in assay [1] (dose 0.40 uM) it was 0.036 log2 fold change; in assay [1] (dose 2.00 uM), 0.052 log2 fold change; in assay [1] (dose 10.00 uM), −0.009 log2 fold change. Besides, the Z.LYZ.NS is on record as 0.400 in assay [1] (dose 0.08 uM), 0.314 in assay [1] (dose 0.40 uM), 0.452 in assay [1] (dose 2.00 uM) and −0.078 in assay [1] (dose 10.00 uM). Besides, the Dose.FC.LYZ.S in assay [2] (dose 0.08 uM) was 0.034 log2 fold change; in assay [2] (dose 0.40 uM), 0.127 log2 fold change; in assay [2] (dose 2.00 uM), 0.070 log2 fold change; in assay [2] (dose 10.00 uM) it was −0.011 log2 fold change.
With `CCOC(=O)c1cncn1[C@H](C)c1ccccc1` [Etomidate], the Dose.FC.CTG with ENR+CD organoids (dose 0.08 uM) worked out at 0.084 log2 fold change; in the assay on ENR+CD organoids (dose 0.40 uM) it was 0.006 log2 fold change; with ENR+CD organoids (dose 2.00 uM), 0.163 log2 fold change; with ENR+CD organoids (dose 10.00 uM), 0.039 log2 fold change. Also, the Dose.FC.LYZ.NS is given as −0.008 log2 fold change in assay [1] (dose 0.08 uM), 0.037 log2 fold change in assay [1] (dose 0.40 uM), 0.015 log2 fold change in assay [1] (dose 2.00 uM) and −0.001 log2 fold change in assay [1] (dose 10.00 uM). Moreover, the Z.LYZ.NS is −0.065 in assay [1] (dose 0.08 uM), 0.318 in assay [1] (dose 0.40 uM), 0.131 in assay [1] (dose 2.00 uM) and −0.010 in assay [1] (dose 10.00 uM). The Dose.FC.LYZ.S in assay [2] (dose 0.08 uM) was 0.053 log2 fold change; in assay [2] (dose 0.40 uM), 0.048 log2 fold change; in assay [2] (dose 2.00 uM) it was 0.054 log2 fold change; in assay [2] (dose 10.00 uM), −0.008 log2 fold change.
